Legend:
[1] = tested on: brine shrimp; type: in vivo; conditions: see Example 1
Description: In this Example, various concentrations of the organic extract of Lyngbya majuscula were tested using a brine-shrimp assay. The assay was performed according to the following procedure: 24 hours before performing the assay, brine shrimp eggs were hatched in sea water (made by dissolving INSTANT OCEAN dry concentrate in water according to manufacturer's directions). A volume of the organic extract of Lyngbya majuscula was placed in a 50-mL conical flask (weighed beforehand to obtain the tare weight) and the solvent was evaporated. The flask was re-weighed and the tare weight subtracted to yield the weight of non-volatile residue from the extract. The residue was dissolved with a suitable volume of ethanol to yield a concentration of 0.1 mg residue per μL ethanol. Four vials were prepared, the first containing 50 μL of the ethanol solution, the second containing 10 μL of the ethanol solution plus 40 μL ethanol, the third containing 2.5 μL of the ethanol solution plus 47.5 μL ethanol, and the fourth containing none of the solution and 50 μL ethanol (serving as a negative control). Between 10 and 15 live brine shrimp were placed in each vial and stored for 24 hours, after which the number of live and dead shrimp were tallied for each vial. […]

[2] = tested on: MRC-5 cells; experiment: cytotoxicity / antiproliferative assay on dividing and confluent MRC-5 cells (MTT); type: cell-based, human; conditions: proliferating vs quiescent cells
Description: Evaluation of the antiproliferative activity of fractions using MRC-5 cells in culture was performed using the following procedure: Human embryonic lung (MRC-5) cells were obtained from the American Type Culture Collection. The cells were grown in Eagle's Minimum Essential Medium with Earle's salts (EMEM, JRH Bioscience) supplemented with 10% fetal calf serum (Hyclone), 0.75 mg/mL NaHCO3, 100 units of penicillin per mL, and 100 μg streptomycin per mL (Gibco Labs). As in the AB1 cell assay, cell growth and survival was determined calorimetrically, based upon the uptake and reduction of the tetrazolium salt, MTT, to a blue-colored formazan product by mitochondrial enzymes of living cells. The effect of the fractions, as potential inhibitors at different stages of the cell cycle, was determined by performing the assay using both resting and rapidly dividing cells. […] At the end of the incubation, the medium was aspirated, the cells were rinsed once using PBS, and 1.0 mg/mL of MTT was added to each well. The plates were incubated with MTT for three hours, after which the MTT was aspirated and isopropanol was added to dissolve any formazen crystals that formed. Plates were "read" on an Elisa reader at 570 nm (principal wavelength) and again at 650 wavelength (reference wavelength) to correct for non-specific background absorbance, using a Thermomax Spectrophotometer (Molecular Devices). […]

[3] = tested on: MRC-5 cells; AB1 cells; experiment: activity of second-stage fractions and of the separated isomers (FIG. 1; test not stated); type: cell-based; conditions: Curacin A vs Curacin B
Description: Elution in the second stage was performed within a much smaller range of increasingly greater amounts of ethyl acetate in hexane (1 to 5% in 0.5 to 1.0% increments). […] Fractions 5-9 were pooled and, as such, represented about 200 mg total.
Since the Curacin A and Curacin B compounds were […] to CH2 N2, methylation offered a way to purify the compound from the contaminants in the extract. After reaction of the extract with CH2 N2, the extract was subjected to high performance liquid chromatography (HPLC) in an effort to separate the two isomers. […]
Evaluation of the antiproliferative activity of fractions using MRC-5 cells in culture was performed using the following procedure: Human embryonic lung (MRC-5) cells were obtained from the American Type Culture Collection. […] As in the AB1 cell assay, cell growth and survival was determined calorimetrically, based upon the uptake and reduction of the tetrazolium salt, MTT, to a blue-colored formazan product by mitochondrial enzymes of living cells. The effect of the fractions, as potential inhibitors at different stages of the cell cycle, was determined by performing the assay using both resting and rapidly dividing cells. […]

[4] = tested on: proliferating cells; experiment: administration of formulations containing Curacins A and B to mice (data not shown); type: in vivo; conditions: various direct methods and oral
Text: In addition, these tests indicate that Curacins A and B can be administered to animal subjects using dosage protocols that are substantially similar to such protocols used with other antimitotics.

[5] = tested on: spleen lymphocytes; experiment: ex vivo experiments on spleen lymphocytes after administration to mice; conditions: 1-10 mg/kg
[6] = tested on: 60 different human tumor cell lines; conditions: for cytotoxicity: cancer cell lines
Description: In these examples, an extract of Lyngbya majuscula containing Curacins A and B was subjected to the drug screening procedure employed by the National Cancer Institute for the screening of drugs having possible anticancer utility.
The screening procedure employed a diverse, disease-oriented panel consisting of 60 different human tumor cell lines organized into seven disease-specific subpanels. The extract was tested over a wide range of concentrations for cytotoxic or growth-inhibitory effects against each cell line comprising the panel. The seven subpanels represented diverse histologies (leukemias, melanomas, and tumors of the lung, colon, kidney, ovary, and brain).
The extract was tested over two days in which the cells were continuously exposed to five log10 -spaced concentrations of the drug starting at 10^-4 μg/mL. The tests produced 60 individual dose-response curves, one for each cell line (i.e., one for each example).
To produce data for the mean-graph format shown in FIG. 7, a concentration of the extract that produced a target level response was calculated for each cell line. Three different response parameters were evaluated. The first response parameter was the "GI50," which is the concentration of the extract that produced an apparent 50% decrease in the number of tumor cells relative to the appropriate control (not exposed to extract) at the end of the incubation period. The second response parameter was the "TGI," which is the concentration at which the number of tumor cells remaining at the end of the incubation period substantially equaled the number of tumor cells existing at the start of the incubation period. The third response parameter was the "LC50," which is the concentration of extract that caused an apparent 50 percent reduction in the number of tumor cells relative to the appropriate control (not exposed to extract) at the start of the incubation period.
In a typical GI50 mean graph (e.g., left graph of FIG. 7), the relative position of the vertical reference line along the horizontal concentration axis is obtained by averaging the negative log10 GI50 values for all the cell lines tested against the extract. Horizontal bars are then plotted for the individual negative log10 GI50 values of each cell line relative to the vertical reference line. […] The length of a bar is proportional to the difference between the log10 GI50 value obtained with the particular cell line and the mean (represented by the vertical reference line).
COMPARE is used to rank the similarity of the mean graph profile of the sample extract or drug to the patterns of all the other compounds in the NCI screening database or a defined subset thereof.

Structure (SMILES) | effectiveness for reducing a population of representative arthropods (brine shrimp) [1] | activity against proliferating versus quiescent cells [2] | activity of Curacin A relative to Curacin B (times more active) [3] | bioavailability [4] | effectiveness in vivo against proliferating cells [4] | effect against spleen lymphocytes [5] | mode of action indicated by COMPARE analysis ([6]; COMPARE data, Tables 1 and 2) | cytotoxicity [6] | antiproliferative activity against living cells in culture ([6]; living cells in culture) | antimitotic activity ([6]; various tests)
C=CC[C@@H](CC/C(C)=C/C=C/CC/C=C\[C@@H]1CSC([C@@H]2C[C@@H]2C)=N1)OC [Curacin A] | effectiveness | more active against proliferating cells than against quiescent cells | about 10^2 | bioavailable | effective in vivo against proliferating cells | substantial effect against spleen lymphocytes | functions as an antimitotic | cytotoxic | substantial antiproliferative activity | substantial antimitotic activity
C=CC[C@@H](CC/C(C)=C/C=C\CC/C=C\[C@@H]1CSC([C@@H]2C[C@@H]2C)=N1)OC [Curacin B] |  | more active against proliferating cells than against quiescent cells |  | bioavailable | effective in vivo against proliferating cells | substantial effect against spleen lymphocytes |  | cytotoxic |  | 

Reference: US5324739A (priority 1993, dated 1994)
